Results taken from paper PMC11484510, “Antibacterial activity of structurally diverse natural prenylated isobavachalcone derivatives” (RSC Advances, 2024).
≈ marks a conversion by molar mass, not a printed value. Entries after “also recorded” stand apart in the source; their conditions may differ. Like-named read-outs stand apart in the source and are kept apart here.

Tests used:
S. aureus [1] = experiment: Combinational study (checkerboard microdilution) with standard drugs; assay type: cell-based; conditions: for MIC: Staphylococcus aureus, read-out: MIC alone
Experimental: The Fractional Inhibitory Concentration Index (FICI) was calculated for each test compound and reference drug to find the combinational effect.
In a 96-well flat bottom plate, the reference drug with 4× MIC was serially diluted horizontally. The test compounds with 4× MIC were serially diluted two-fold outside the plate in 1.5 mL Eppendorf's using Mueller Hinton Broth (MHB). These two serially diluted compounds were combined to create drug-compound combinations in the plate. The reference drug (horizontally) and tested compounds (vertically) alone were serially diluted for MIC determination. 100 μL of the standardized bacterial inoculum with a turbidity equivalent to a 0.5 McFarland standard were diluted 1 : 100 in Mueller Hinton Broth and inoculated in the plates. The plates were incubated for 24 hours at 37 °C. After incubation, 10 μL of freshly prepared Alamar blue (Himedia) was added to each well of the plate, and the plates were further incubated at 37 °C for 30 minutes. After incubation, the plates were visually observed. […] The FICI was calculated using the formula FICI = FIC of compound + FIC of drug. The calculation followed is FICI (CA/(MICA)) + (CB/(MICB)), where CA is the MIC of the compound in combination, CB is the MIC of the drug in combination, and MICA and MICB are the MIC values of individual compounds and drugs, respectively. The range selection followed the interpretation criteria. The FICI range of 0.5 to 4 indicates indifference, ≤ or =0.5 indicates synergy and >4 indicates antagonism.[57]

[2] = Cell viability assay (MTT); assay type: cell-based, murine; conditions: mouse, RAW 264.7 macrophage cells; RAW 264.7 macrophage cell line, MTT assay
Experimental: (§1) RAW 264.7 cells were acquired from the American type culture collection (ATCC, Manassas, VA) and cultured in Dulbecco's modified eagle's medium (DMEM, Gibco, Life Technologies, NY) supplemented with 10% fetal bovine serum (FBS) at 37 °C and 5% CO2. MTT dye (Himedia) was used to detect CC50 values. The antibiotics ciprofloxacin hydrochloride monohydrate (Himedia), kanamycin sulfate (Himedia), and vancomycin (Himedia) were used for reference in microbiological assays.
(§2) The effect of compounds (IBC, IBC-2, and IBC-3) on the viability of cells was evaluated at different concentrations against macrophage cell lines through the 3-(4,5-dimethylthiazol2-yl)-2, 5-diphenyltetrazolium bromide (MTT) assay. The RAW 264.7 cells are monocyte/macrophage-like cells originating from an Abelson leukemia virus-transformed cell line derived from BALB/c mice. Due to their reliability and consistency, these cell lines are widely utilized for both in vitro and in vivo analyses.[52] The MTT assay is a colorimetric assay used to measure the viability and cytotoxicity of cells. The cells (2 × 10^4 cells per well) were grown at 37 °C with 5% CO2 for 48 hours, then exposed to compounds with different concentrations. […] After 20–21 hours, 20 μL of MTT dye at 2.5 mg mL^−1 concentration was added to each well and incubated for 4 hours. 100 μL DMSO solubilized the water-insoluble purple and white formazan produced.[53] The formation of the formazan salt by mitochondrial dehydrogenases was measured at 570.0 nm after incubating for 20 min. The percentage cytotoxicity was calculated with respect to the untreated cells, and the CC50 value was calculated. CC50 was defined as the concentration of an inhibitor that reduces cellular activities by 50% compared to untreated control cultures. The CC50 values were calculated as the concentration where the absorbance was reduced by 50% using GraphPad Prism software.[54] The selectivity index (SI) determines the safety profile of the compound. It is calculated as the ratio of compound concentration at which 50% of cell growth is inhibited compared to untreated cells (CC50) to the effective inhibiting concentration against bacterial strain (MIC). The high SI (>10 fold of MIC) of a drug is proven to have a favorable safety profile.[28] Selectivity index (SI) = CC50 of the compound (μM)/MIC of the compound (μM).

E. coli ATCC 25922 = experiment: MIC, broth microdilution (CLSI), Alamar blue; assay type: cell-based; conditions: E. coli ATCC 25922, 24 hours at 37 °C, read-out: Minimum inhibitory concentration (MIC) E. coli
Source text: (§3) The bacterial strains S. aureus ATCC 29213, MRSA ATCC 15187, E. coli ATCC 25922, and P. aeruginosa ATCC 27853 were obtained from ATCC (American Type Culture Collection). Cation-adjusted Mueller–Hinton broth (MHB; Becton–Dickinson, Cockeysville, MD) was used to determine the minimum inhibitory concentration (MIC). Mueller–Hinton agar (MHA; Becton–Dickinson) was used for minimum bactericidal concentration (MBC) studies. Alamar blue (Himedia) was used to detect the MIC value.
(§4) The antibacterial activity of the compounds against S. aureus ATCC 29213, MRSA ATCC 15187, E. coli ATCC 25922, and P. aeruginosa ATCC 27853 was determined through a broth microdilution method according to the guidelines of the Clinical and Laboratory Standards Institute (CLSI).[50] […] Growth control and media control were employed along with 2% DMSO as vehicle control.
(§5) In a 96-well flat bottom plate, the test compounds were two-fold serially diluted in Mueller Hinton Broth (MHB). The final concentrations of the compounds ranged from 100 to 0.08 μM. 100 μL of standardized bacterial inoculum with turbidity equivalent to 0.5 McFarland standard (1.5 × 10^8 CFU mL^−1) was diluted 1 : 100 (1.5 × 10^6 CFU mL^−1) in Mueller Hinton Broth and inoculated in the plates.[51] The plates were incubated for 24 hours at 37 °C. After incubation, 10 μL of freshly prepared Alamar blue (Himedia) was added to each well of the plate, and plates were further incubated at 37 °C for 30 minutes. After incubation, the fluorescence was measured at excitation/emission of 540–570/580–610 nm. The percentage inhibition and viability were calculated for the controls, and the Gompertz curve was utilized to estimate the minimum inhibitory concentration.

S. aureus ATCC 29213 [3] = experiment: MIC, broth microdilution (CLSI), Alamar blue; assay type: cell-based; conditions: S. aureus ATCC 29213, 24 hours at 37 °C, read-out: Minimum inhibitory concentration (MIC) S. aureus
Source text: as §3, §4, §5

P. aeruginosa ATCC 27853 [4] = experiment: MIC, broth microdilution (CLSI), Alamar blue; assay type: cell-based; conditions: P. aeruginosa ATCC 27853, 24 hours at 37 °C, read-out: Minimum inhibitory concentration (MIC) P. aeruginosa
Source text: as §3, §4, §5

S. aureus ATCC 29213 [5] = experiment: MBC, plating on MHA; assay type: cell-based; conditions: Staphylococcus aureus, ATCC29213; more than 99.9% of the cells killed; read-out: Minimum bactericidal concentration (MBC) S. aureus
Source text: as §3
(§6) MBC is defined as the lowest concentration of the compound at which more than 99.9% of the cells were killed compared with the growth control. The minimum compound concentration at which no visible bacterial growth was observed was taken as the Minimum Bactericidal Concentration (MBC).[50]

P. aeruginosa ATCC 27853 [6] = experiment: MBC, plating on MHA; assay type: cell-based; conditions: Pseudomonas aeruginosa, ATCC27853; more than 99.9% of the cells killed; read-out: Minimum bactericidal concentration (MBC) P. aeruginosa
Source text: as §3, §6

S. aureus ATCC 29213 [7] = experiment: Time-kill assay; assay type: cell-based; conditions: for Time-kill profile: MIC, 2× MIC, 4× MIC, 1 h to 24 h, 37 °C
MRSA ATCC 15187 = experiment: MIC, broth microdilution (CLSI), Alamar blue; assay type: cell-based, Methicillin-resistant S. aureus; conditions: read-out: Minimum inhibitory concentration (MIC) MRSA
Source text: as §3, §4, §5

S. aureus [8] = experiment: Cell integrity analysis by PI staining; assay type: cell-based; conditions: drug control at 1× MIC, 30 minutes
Experimental: Propidium iodide (PI) indicates cell integrity, emitting a red fluorescence signal. PI's polar and hydrophilic nature impedes its entrance within active bacterial cells, but within perforated dead cells, it can easily bind to nucleic acid (DNA/RNA).[32,60]S. aureus bacterial cells were incubated overnight at 37 °C and diluted further 1 : 100 in Mueller Hinton Broth (MHB). The diluted culture was grown until its OD600 reached 0.5. […] Vancomycin was used as a drug control at 1× MIC, while untreated bacterial cells were used as growth control. The samples were centrifuged at 5000 rpm speed at 4 °C temperature for 10 minutes, and the pellet was washed two times using phosphate-buffered saline pH-7.4 (PBS). To stain the sample (dead cells), 3 μL PI of 20.0 mM concentration was added to the 1 mL solution (pellet resuspended in PBS) and incubated for 15 minutes. To remove the dye, the samples were centrifuged again and washed with PBS once. The final pellet was resuspended in 1 mL of PBS, and 30 μL of each undiluted sample was used to obtain fluorescence imaging. The cells were observed under fluorescence microscopy.[61]

[9] = test system: RAW 264.7 macrophage cell line; experiment: Cell viability assay (MTT); assay type: cell-based, murine; conditions: CC50 (RAW 264.7)/MIC with respect to S. aureus
Experimental: as §1, §2

[10] = MIC of the compound in combination with ciprofloxacin, S. aureus
[11] = MIC of the compound in combination with vancomycin, S. aureus
[12] = checkerboard, S. aureus, substance alone
[13] = compound with ciprofloxacin, S. aureus
[14] = compound with vancomycin, S. aureus
[15] = Staphylococcus aureus, ATCC29213
[16] = Pseudomonas aeruginosa, ATCC27853, 24 h
[17] = MRSA ATCC 15187, 24 hours at 37 °C
[18] = Staphylococcus aureus, MRSA ATCC 15187, 24 hours at 37 °C

Compound | MIC combination (compound) (S. aureus [1]; [10]) | MIC combination (compound) (S. aureus [1]; [11]) | MIC (S. aureus [1]; [12]) | Outcome of combination (S. aureus [1]; [13]) | ∑ FICI (S. aureus [1]; [13]) | Outcome of combination (S. aureus [1]; [14]) | ∑ FICI (S. aureus [1]; [14]) | CC50 [2] | MIC (E. coli ATCC 25922) | MIC (E. coli ATCC 25922; Escherichia coli, ATCC25922) | MIC (S. aureus ATCC 29213 [3]) | MIC (S. aureus ATCC 29213 [3]; [15]) | MIC (P. aeruginosa ATCC 27853 [4]; [16]) | MBC (S. aureus ATCC 29213 [5]) | MBC (P. aeruginosa ATCC 27853 [6]) | Time-kill profile (S. aureus ATCC 29213 [7]) | MIC (MRSA ATCC 15187; [17]) | MIC (MRSA ATCC 15187; [18]) | other results
CC1(C)CCc2c(ccc3c2OC(c2ccc(O)cc2)CC3=O)O1 (stereo not drawn) [IBC-2, 2-(4-hydroxyphenyl)-8,8-dimethyl-2,3,9,10-tetrahydro-4H,8H-pyrano[2,3-f]chromen-4-one] | 0.625 µM | 5 µM | 5 µM | Indifference (The FICI range of 0.5 to 4 indicates indifference) | 0.625 | Indifference (The FICI range of 0.5 to 4 indicates indifference) | 2 | 115 µM | >100 µM | > 100 µM | 5 µM (≈ 1.62 µg/mL) | 5 µM (≈ 1.62 µg/mL) | 24 µM (≈ 7.79 µg/mL) | 12.5 µM (≈ 4.05 µg/mL) | 50 µM (≈ 16.2 µg/mL) | concentration-dependent killing effect; also recorded: concentration and time-dependent killing effects | >100 µM | > 100 µM | MIC (P. aeruginosa ATCC 27853 [4]): 22 µM (≈ 7.14 µg/mL); CFU count of S. aureus ATCC 29213 in time-kill study (S. aureus ATCC 29213 [7]; 2× MIC and 4× MIC, with increasing time (up to 24 h)): below the detection limit
CN[C@H](CC(C)C)C(=O)N[C@H]1C(=O)N[C@@H](CC(N)=O)C(=O)N[C@H]2C(=O)N[C@H]3C(=O)N[C@H](C(=O)N[C@H](C(=O)O)c4cc(O)cc(O)c4-c4cc3ccc4O)[C@H](O)c3ccc(c(Cl)c3)Oc3cc2cc(c3O[C@@H]2O[C@H](CO)[C@@H](O)[C@H](O)[C@H]2O[C@H]2C[C@](C)(N)[C@H](O)[C@H](C)O2)Oc2ccc(cc2Cl)[C@H]1O [Vancomycin, vancomycin, reference compound] |  |  |  |  |  |  |  |  |  |  |  |  |  |  |  |  |  |  | MIC combination (drug) (S. aureus [1]; MIC of vancomycin in combination with IBC, S. aureus): 0.39 µM; MIC combination (drug) (S. aureus [1]; MIC of vancomycin in combination with IBC-2, S. aureus): 0.78 µM; MIC combination (drug) (S. aureus [1]; MIC of vancomycin in combination with IBC-3, S. aureus): 0.02 µM; MIC (S. aureus [1]): 0.78 µM; PI red fluorescence (cell integrity) (S. aureus [8]): higher number of dead cells emitting red fluorescence; MIC (MRSA ATCC 15187; Staphylococcus aureus, 24 h): 0.7 µM (≈ 1.01 µg/mL)
CC(C)=CCc1c(O)ccc(C(=O)/C=C/c2ccc(O)cc2)c1O [IBC, (E)-1-(2,4-dihydroxy-3-(3-methylbut-2-en-1-yl)phenyl)-3-(4-hydroxyphenyl) prop-2-en-1-one] | 5 µM | 2.5 µM | 5 µM | Indifference (The FICI range of 0.5 to 4 indicates indifference) | 1.25 | Indifference (The FICI range of 0.5 to 4 indicates indifference) | 0.99 | 94 µM | >100 µM | > 100 µM | 5 µM (≈ 1.62 µg/mL) | 5 µM (≈ 1.62 µg/mL) | 24 µM (≈ 7.79 µg/mL) | 6.25 µM (≈ 2.03 µg/mL) | 25 µM (≈ 8.11 µg/mL) | after 24 hours, an increase in CFU was observed; also recorded: concentration-dependent killing till 9 h | >100 µM | > 100 µM | Selectivity index (SI) [9]: 19
